According to paper PMC9489722, “Identification and development of a subtype-selective allosteric AKT inhibitor suitable for clinical development” (Scientific Reports, 2022):
Where two headings read alike, the source gives them in different places.

Key:
[1] = biological target: p38α (Homo sapiens, UniProt Q16539); assay: SelectScreen kinase selectivity profiling, p38α; assay type: biochemical
Experimental: (§1) Off-target kinase activity was performed using the SelectScreen kinase profiling service against either mini 50 kinase or full 450 kinase panels using the Z’lyte and Adapta kinase activity platforms (performed by Thermofisher).

[2] = biological target: PDK1 (Homo sapiens, UniProt O15530); assay: SelectScreen kinase selectivity profiling, PDK1; assay type: biochemical
Sequence of PDK1 (O15530 whole entry): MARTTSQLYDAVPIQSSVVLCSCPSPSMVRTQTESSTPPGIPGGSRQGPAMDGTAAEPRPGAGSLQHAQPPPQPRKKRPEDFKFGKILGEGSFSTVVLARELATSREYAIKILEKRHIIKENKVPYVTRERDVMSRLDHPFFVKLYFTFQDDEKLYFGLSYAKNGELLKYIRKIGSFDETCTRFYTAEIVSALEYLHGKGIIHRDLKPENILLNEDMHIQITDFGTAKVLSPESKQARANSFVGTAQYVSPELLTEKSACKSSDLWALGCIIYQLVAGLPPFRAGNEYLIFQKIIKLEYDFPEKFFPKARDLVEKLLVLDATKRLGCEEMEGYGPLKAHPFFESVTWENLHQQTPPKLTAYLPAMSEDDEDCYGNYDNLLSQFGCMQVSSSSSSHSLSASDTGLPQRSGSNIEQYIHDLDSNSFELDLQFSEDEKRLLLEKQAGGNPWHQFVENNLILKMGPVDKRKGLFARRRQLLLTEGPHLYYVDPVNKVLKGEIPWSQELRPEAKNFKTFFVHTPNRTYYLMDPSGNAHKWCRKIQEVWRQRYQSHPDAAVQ
Experimental: as §1

[3] = test system: MCF-7 xenografts; assay: Efficacy study in MCF-7 breast cancer xenograft model; assay type: in vivo; conditions: MCF-7 xenograft; for tumour regression: p.o.
Experimental: For efficacy in MCF-7 xenografts, 150 SCID female mice aged 6–8 weeks and weighing approximately 18–22 g were implanted with 1 × 10^7 MCF-7 tumour cells (ATCC) subcutaneously in the right flank. […] Once mean tumour size reached approximately 150 mm^3, mice were randomised to either control or treatment groups (n = 10/group) using a randomised block approach. Groups sizes were devised based on past experience of the provider. […] Tumour size was measured twice weekly in two dimensions using a caliper, and the volume expressed in mm^3 using the formula: V = 0.5 (a x b^2), where a and b are the long and short diameters of the tumour, respectively.

[4] = biological target: T1, AKT2 (Homo sapiens, UniProt P31751); assay: SelectScreen kinase selectivity profiling, AKT2; assay type: biochemical; conditions: read-out: % inhibition @ 10 µM, AKT2; 10 µM fixed concentration
T1 construct: purchased Signal Chem
T1 sequence (P31751 whole entry): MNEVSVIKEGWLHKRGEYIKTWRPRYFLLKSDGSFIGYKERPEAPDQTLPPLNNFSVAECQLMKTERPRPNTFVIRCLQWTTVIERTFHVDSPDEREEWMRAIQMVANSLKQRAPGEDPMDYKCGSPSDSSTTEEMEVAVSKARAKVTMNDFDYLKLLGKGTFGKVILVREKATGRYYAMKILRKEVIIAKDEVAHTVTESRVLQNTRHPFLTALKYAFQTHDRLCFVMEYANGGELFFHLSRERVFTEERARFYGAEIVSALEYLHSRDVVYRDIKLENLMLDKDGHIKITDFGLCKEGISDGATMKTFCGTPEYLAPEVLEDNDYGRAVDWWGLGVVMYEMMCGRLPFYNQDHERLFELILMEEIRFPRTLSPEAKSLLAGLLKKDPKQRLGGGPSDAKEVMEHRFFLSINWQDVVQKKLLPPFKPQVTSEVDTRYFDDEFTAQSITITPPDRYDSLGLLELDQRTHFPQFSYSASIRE
Experimental: as §1

[5] = test system: A549 xenografts; assay: Anti-tumour efficacy study in A549 lung cancer xenograft model; assay type: in vivo, mouse
Experimental: For efficacy in A549 xenografts, 90 male BALB/c nude mice aged 6–8 weeks and weighing approximately 20–26 g were inoculated subcutaneously in the right flank with 1 × 10^7 A549 tumour cells (ATCC) in 0.1 mL of PBS with Matrigel (1:1) to aid tumour development. When the mean tumour size reached approximately 150 mm^3, 10 mice were randomised to each experimental group, using a randomised block approach. Groups sizes were devised based on past experience of the provider. Treatment started on Day 11 after tumour inoculation with mice receiving ALM301 (either 10, 30 or 100 mg/kg) or vehicle control. Tumour size was measured twice weekly in two dimensions using a caliper, and the volume expressed in mm^3 using the formula: V = 0.5 (a × b^2), where a and b are the long and short diameters of the tumour, respectively.

[6] = test system: ∆AKT2; assay: PH domain null AKT2 biochemical kinase assay (FP iMAP)
Experimental: Biochemical analysis was performed using kinases obtained from Millipore (AKT1, ∆AKT1, ∆AKT2, ∆AKT3) and Signal Chem (AKT2 and AKT3). The specific activity of AKT 1,2 and 3 was determined to be 114 nmol/min/mg, 44 nmol/min/mg and 200 nmol/min/mg respectively as per activity assay protocol. ALM301 was profiled using the Fluorescent Polarisation (FP) iMAP Screening Express kit (Molecular Devices) using the FAM-Crosstide substrate [5FAM-[…]-OH] (Molecular Devices) against the three isoforms of AKT and their PH domain null mutants. Compounds were dissolved in DMSO prior to screening at 14 point titration series in the range (50 µM–50 pM). Fluorescence polarisation was measured using a Biotek Synergy 4 Hybrid microplate reader. Percentage inhibition of kinase activity was calculated and IC50 values derived using non-linear regression on GraphPad Prism. Competition of ALM301 with ATP was determined using AKT1 under increasing ATP concentrations up to 1000 µM.

[7] = test system: MCF-7 cells; assay: In vitro proliferation assay (CellTiter-Glo), MCF-7; assay type: cell-based; conditions: Homo sapiens, MCF7; MCF-7 cells (PI3KCA mutation), 72 h; read-out: anti-proliferative IC50, MCF-7
Experimental: MCF-7, T47D, NCI-H460, HCT116, LNCaP, A431, PC3, PANC-1, A549, HT29M, SKOV-3, Du145, HMEC-1, Hs888Lu, Hela, MDA-MB-231 and SW480 cells were obtained from American Type Culture Collection (ATCC). A2780, PNT2, U251MG, HFFF2 and Fr2 cells were obtained from Public Health England European Collection of Authenticated Cell Cultures (Phe ECACC). InMyoFib and NHLF cells were acquired from Lonza. Cells were then incubated with increasing concentration of inhibitor (1 nM to 100 µM) for 72 h at 37 °C. Cell viability was determined using the CellTiter-Glo Luminescent Cell Viability Assay (Promega). IC50 values were derived as previously stated.

[8] = biological target: CYP 2C19 (Homo sapiens, UniProt P33261); assay: CYP2C19 inhibition; assay type: in vitro ADME
Sequence of CYP 2C19 (P33261 whole entry): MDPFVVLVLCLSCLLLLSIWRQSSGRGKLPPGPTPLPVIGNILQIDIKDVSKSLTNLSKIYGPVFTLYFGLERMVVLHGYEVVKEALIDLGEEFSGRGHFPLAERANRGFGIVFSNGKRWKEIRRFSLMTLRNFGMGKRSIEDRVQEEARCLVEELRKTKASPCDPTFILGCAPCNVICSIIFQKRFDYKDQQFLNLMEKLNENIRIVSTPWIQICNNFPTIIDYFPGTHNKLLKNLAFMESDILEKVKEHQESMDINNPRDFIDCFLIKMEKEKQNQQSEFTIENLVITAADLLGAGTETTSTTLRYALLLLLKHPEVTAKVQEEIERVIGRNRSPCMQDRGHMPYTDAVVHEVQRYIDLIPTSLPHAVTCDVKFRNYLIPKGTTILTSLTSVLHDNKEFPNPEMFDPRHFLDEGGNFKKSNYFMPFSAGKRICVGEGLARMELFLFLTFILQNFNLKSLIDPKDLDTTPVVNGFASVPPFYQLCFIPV

[9] = LogD7.4 assay; assay type: physicochemical; conditions: octanol/PBS buffer; octanol/PBS pH 7.4
Experimental: Compounds (100 µM) were shaken at 300 rpm at room temperature for 4 h in a biphasic system of octanol and PBS buffer pH 7.4 in a 96-well plate in triplicate. The relative drug concentration in each phase was then determined by the peak area measurement from LC-UV analysis on an Agilent 1260 chromatography instrument (UV detection at 254 nm and 220 nm). LogD is calculated as follows: LogD = Log[peak area of compound in octanol x injection volume of buffer phase/peak area of compound in buffer x injection volume of octanol phase].

[10] = biological target: T1, AKT2; assay: AKT2 biochemical kinase assay (FP iMAP)
Experimental: (§2) Biochemical analysis was performed using kinases obtained from Millipore (AKT1, ∆AKT1, ∆AKT2, ∆AKT3) and Signal Chem (AKT2 and AKT3). […] (Molecular Devices) against the three isoforms of AKT and their PH domain null mutants. Compounds were dissolved in DMSO prior to screening at 14 point titration series in the range (50 µM–50 pM). Fluorescence polarisation was measured using a Biotek Synergy 4 Hybrid microplate reader. Percentage inhibition of kinase activity was calculated and IC50 values derived using non-linear regression on GraphPad Prism. Competition of ALM301 with ATP was determined using AKT1 under increasing ATP concentrations up to 1000 µM.

[11] = biological target: T2, AKT3 (Homo sapiens, UniProt Q9Y243); assay: AKT3 biochemical kinase assay (FP iMAP)
T2 construct: purchased Signal Chem
T2 sequence (Q9Y243 whole entry): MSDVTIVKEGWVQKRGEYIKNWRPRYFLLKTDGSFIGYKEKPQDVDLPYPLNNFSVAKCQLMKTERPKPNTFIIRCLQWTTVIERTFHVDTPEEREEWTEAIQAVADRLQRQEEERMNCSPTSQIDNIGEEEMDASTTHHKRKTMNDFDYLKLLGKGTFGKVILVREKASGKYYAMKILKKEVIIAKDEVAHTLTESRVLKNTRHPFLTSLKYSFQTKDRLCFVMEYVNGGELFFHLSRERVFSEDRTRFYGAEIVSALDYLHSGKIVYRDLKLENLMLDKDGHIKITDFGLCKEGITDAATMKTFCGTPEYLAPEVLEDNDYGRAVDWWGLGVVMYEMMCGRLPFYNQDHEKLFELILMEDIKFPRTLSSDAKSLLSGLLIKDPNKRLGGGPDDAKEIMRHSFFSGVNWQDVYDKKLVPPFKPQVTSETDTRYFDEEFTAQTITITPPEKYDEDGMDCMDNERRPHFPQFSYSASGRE
Experimental: as §2

[12] = biological target: CYP3A4 (Homo sapiens, UniProt P08684); assay: CYP3A4 inhibition; assay type: in vitro ADME; conditions: read-out: CYP IC50, 3A4
Sequence of CYP3A4 (P08684 whole entry): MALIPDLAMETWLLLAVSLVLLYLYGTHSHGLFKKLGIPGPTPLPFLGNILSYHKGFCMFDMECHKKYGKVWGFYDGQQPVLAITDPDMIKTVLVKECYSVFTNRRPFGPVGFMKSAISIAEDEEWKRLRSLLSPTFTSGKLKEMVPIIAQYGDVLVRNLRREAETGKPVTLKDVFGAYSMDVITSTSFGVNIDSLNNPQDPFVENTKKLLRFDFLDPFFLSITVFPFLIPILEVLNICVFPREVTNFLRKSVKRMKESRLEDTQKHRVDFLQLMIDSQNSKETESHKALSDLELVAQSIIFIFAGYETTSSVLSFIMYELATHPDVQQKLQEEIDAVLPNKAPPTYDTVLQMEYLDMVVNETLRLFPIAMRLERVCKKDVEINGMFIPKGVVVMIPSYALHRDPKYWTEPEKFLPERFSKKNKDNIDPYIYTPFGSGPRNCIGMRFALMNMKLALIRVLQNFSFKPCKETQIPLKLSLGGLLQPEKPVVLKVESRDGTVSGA

[13] = biological target: CYP 2C9 (Homo sapiens, UniProt P11712); assay: CYP2C9 inhibition; assay type: in vitro ADME
Sequence of CYP 2C9 (P11712 whole entry): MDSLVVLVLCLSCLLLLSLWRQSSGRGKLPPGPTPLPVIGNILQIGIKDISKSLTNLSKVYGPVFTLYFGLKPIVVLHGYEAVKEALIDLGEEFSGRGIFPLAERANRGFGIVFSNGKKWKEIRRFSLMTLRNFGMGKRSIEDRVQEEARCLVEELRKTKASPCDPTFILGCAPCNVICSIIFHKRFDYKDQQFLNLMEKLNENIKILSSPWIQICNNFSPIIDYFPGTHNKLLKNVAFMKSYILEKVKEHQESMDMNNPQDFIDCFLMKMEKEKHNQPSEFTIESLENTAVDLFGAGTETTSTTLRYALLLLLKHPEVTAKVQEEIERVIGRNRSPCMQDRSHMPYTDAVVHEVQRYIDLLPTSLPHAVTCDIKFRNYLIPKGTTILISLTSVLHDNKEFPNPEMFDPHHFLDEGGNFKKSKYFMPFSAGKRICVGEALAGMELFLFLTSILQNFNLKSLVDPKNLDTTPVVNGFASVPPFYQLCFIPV

Sequence of p38α (Q16539 whole entry): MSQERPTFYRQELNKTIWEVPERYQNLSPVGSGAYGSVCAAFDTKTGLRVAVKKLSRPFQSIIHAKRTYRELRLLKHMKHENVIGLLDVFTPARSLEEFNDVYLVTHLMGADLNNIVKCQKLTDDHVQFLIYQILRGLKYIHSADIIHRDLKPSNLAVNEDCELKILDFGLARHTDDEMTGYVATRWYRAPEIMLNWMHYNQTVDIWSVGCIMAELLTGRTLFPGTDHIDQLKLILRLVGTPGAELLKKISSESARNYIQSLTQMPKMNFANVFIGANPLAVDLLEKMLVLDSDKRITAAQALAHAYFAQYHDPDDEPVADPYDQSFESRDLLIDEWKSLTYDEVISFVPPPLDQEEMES

CCN1C(=O)COc2nc(-c3ccc([C@]4(N)C[C@@H](O)C4)cc3)c(-c3ccccc3)cc21 [ALM301, 6-(4-((1S,3S)-1-amino-3-hydroxycyclobutyl)phenyl)-1-ethyl-7-phenyl-1H-pyrido[2,3-b][1,4]oxazin-2(3H)-one]
IC50 ([1]; 10-point titration curve): > 10000 nM | inhibition at 10 µM ([1]; read-out: % inhibition @ 10 µM, p38α, 10 µM fixed concentration): 84% | IC50 ([2]; 10-point titration curve): > 10000 nM | inhibition at 10 µM ([2]; read-out: % inhibition @ 10 µM, PDK1, 10 µM fixed concentration): 77% | tumour regression ([3]; ALM301 3 mg/kg q.d. in combination with tamoxifen 5 mg/kg q.d.): 57% | tumour regression ([3]; ALM301 10 mg/kg q.d. in combination with tamoxifen 5 mg/kg q.d.): 50% | tolerability / animal body weight ([3]; monotherapy and in combination with tamoxifen, any dose levels): no significant effects on animal body weight | tumour growth inhibition, single agent ([3]; p.o. 3 or 10 mg/kg once-a-day): minimal tumour growth inhibition | inhibition at 10 µM [4]: 89% | tolerability / body weight ([5]; 100 mg/kg dosing group, recovered after every other day dosing): Moderate bodyweight loss | tolerability / body weight ([5]; 10 and 30 mg/kg dose groups): no body weight loss or adverse effects observed | tumour growth inhibition (TGI) ([5]; p.o. 10 mg/kg q.d. × 28): 23% | tumour growth inhibition (TGI) ([5]; p.o. 30 mg/kg q.d. × 28): 31% | tumour growth inhibition (TGI) ([5]; p.o. 100 mg/kg q.d × 3 then q.o.d. × 25): 41% | inhibition of truncated AKT2 lacking PH domain [6]: not inhibited | IC50 [7]: 2250 nM | IC50 [8]: > 25000 nM | logD at 4 h [9]: 1.2 | IC50 ([10]; full length AKT2, read-out: IC50 full length AKT2): 95 nM | IC50 ([10]; read-out: AKT IC50, AKT2): 90 nM | potency versus AKT3 reduced relative to AKT1 and AKT2 ([11]; in vitro kinase assays): over 20 fold | IC50 ([11]; read-out: AKT IC50, AKT3): 2750 nM | IC50 ([11]; read-out: IC50 AKT3): > 500 nM | IC50 [12]: > 25000 nM | IC50 [13]: > 25000 nM
